The IC50 is the concentration that inhibits the measured activity by half.

Entries after “also recorded” stand apart in the source; their conditions may differ. Like-named read-outs stand apart in the source and are kept apart here.

Data set [1] has as its system A549 lung cancer cells. As to the kind of experiment: Cell viability (resazurin) assay, A549. Type of data set: cell-based. As to conditions: read-out: IC50 values (mean ± SD) A549. How it is done: (§1) This includes lung cancer cells (A549) and breast cancer cells (MCF‐7 and MDA‐MB‐231). […] The remaining compounds were also found to portray the inhibition at a low micromolar range and better than the cisplatin, employed as a positive control during the experiment.
(§2) The cell viability assay of new compounds was performed against A549, MCF‐7, and MDA‐MB‐231 carcinoma cell lines. The cells (2500 cells/well) were seeded in a 96‐well plate using DMEM media (Gibco by Life Technologies) consisting of 10% FBS and subjected to incubation at 37°C for 24 h in 5% CO2 in a Nuaire incubator (humidified) for adherence to surface and growth. After 24 h, cells were subjected to treatment against target compounds (1K1‐1K5) at different concentrations (final concentrations ranging from 0.01–30 μM) and left for incubation for 72 h at the same conditions as mentioned above. The same procedure was repeated after 72 h after replacing the remaining test compound with fresh media and incubating treated cells for a further 48 h. After incubation, the remaining compounds with media were removed followed by washing with fresh media and the addition of 100 μL of resazurin (1 mM, Sigma). The 96‐well plate was incubated for 4 h at room temperature. A multimode microplate reader was used to record fluorescence at 535 nm (excitation) and 590 nm (emission) wavelengths. Background fluorescence was subtracted for calculating final results and avoiding any interference and normalized against vehicle control (DMSO treated cells) to calculate final cell viability. Cell viability (percentage) was used to calculate the IC50 values of the target compounds using fitting the curve to the “four‐parameter variable slope logistic model” using Prism Graph Pad (Kathuria et al. [2023]; Rani et al. [2023]).
On the technique in general: Alamar Blue is a resazurin reagent that responds to reducing activity.

For data set [2], the system named is MCF-7 breast cancer cells. As to the kind of experiment: Cell viability (resazurin) assay, MCF-7. Type of data set: cell-based. As to conditions: read-out: IC50 values (mean ± SD) MCF-7. How it is done: as §1, §2
For data set [3], the system named is MDA-MB-231 breast cancer cells. The data set is described as follows: Cell viability (resazurin) assay, MDA-MB-231. The class given is cell-based. Conditions: MDA-MB-231 cells, read-out: IC50 values (mean ± SD) MDA-MB-231. How it is done:
as §1, §2

Data set [4] in a line: Human liver microsomal stability (DMPK). Type of data set: in vitro ADME. Conditions: for % parent remaining: human liver microsomes 0.5 mg/mL, 1 μM compound, NADPH, 30 min; for half-life at 1 μM: human, liver microsomes, pH 7.4, human liver microsomes, read-out: T 1/2 (HLM); for microsomal CLint at 1 μM: pH 7.4, human liver microsomes, read-out: CLint (HLM). How it is done: (§3) To understand the intrinsic pharmacokinetics of synthetics and their stability in relation to human liver microsomal (HLM) and mouse liver microsomal (MLM), we performed the DMPK studies.
(§4) The DMPK evaluation involves multiple reagents and instruments. The chemical and reagents include synthesized target molecules (at a concentration of 1–3 mg), DMSO (HPLC grade), PBS (pH = 7.4), NADPH, and liver microsomes (human and mouse) procured from Thermo. The instruments include Nexera X2 UPLC with an AB Sciex QTrap 4500 MS/MS detector (Shimadzu), single and multichannel micropipette (Eppendorf USA and Thermo), a 96‐well plate (1 mL capacity with deep wells) vortex mixer (Tarsons), centrifuge tubes (Tarsons) water bath (MRC), and a centrifuge (Thermo). The fresh stock solutions (10 mM) were prepared and incubations were carried out in duplication. Each well‐comprised potassium phosphate buffer (100 mM, pH 7.4) with 0.5 mg/mL microsome, NADPH (1 mM), and target molecule (1 μM). After 30 min incubation (37°C), the aliquots were taken at 0 and 30 min and quenched with chilled acetonitrile comprising Terfenadine as internal standard. The samples were centrifuged at 4000 rpm at 4°C, and the supernatant was subjected to LC–MS/MS for analysis. The experiment was used to determine the half‐life of the compound with the help of peak area ratio relative to the internal standard.
In general terms: Microsomes from liver hold many membrane-bound enzymes, among them those of drug oxidation.

Data set [5] can be described thus: Mouse liver microsomal stability (DMPK). Type of data set: in vitro ADME. As to conditions: for % parent remaining: mouse liver microsomes 0.5 mg/mL, 1 μM compound, NADPH, 30 min; for half-life at 1 μM: mouse, liver microsomes, pH 7.4, mouse liver microsomes, read-out: T 1/2 (MLM); for microsomal CLint at 1 μM: pH 7.4, mouse liver microsomes, read-out: CLint (MLM). How it is done: as §3, §4

Data set [6] concerns the target T1, MERTK (cMER) (Homo sapiens, UniProt Q12866).
T1 sequence (Q12866 21-999): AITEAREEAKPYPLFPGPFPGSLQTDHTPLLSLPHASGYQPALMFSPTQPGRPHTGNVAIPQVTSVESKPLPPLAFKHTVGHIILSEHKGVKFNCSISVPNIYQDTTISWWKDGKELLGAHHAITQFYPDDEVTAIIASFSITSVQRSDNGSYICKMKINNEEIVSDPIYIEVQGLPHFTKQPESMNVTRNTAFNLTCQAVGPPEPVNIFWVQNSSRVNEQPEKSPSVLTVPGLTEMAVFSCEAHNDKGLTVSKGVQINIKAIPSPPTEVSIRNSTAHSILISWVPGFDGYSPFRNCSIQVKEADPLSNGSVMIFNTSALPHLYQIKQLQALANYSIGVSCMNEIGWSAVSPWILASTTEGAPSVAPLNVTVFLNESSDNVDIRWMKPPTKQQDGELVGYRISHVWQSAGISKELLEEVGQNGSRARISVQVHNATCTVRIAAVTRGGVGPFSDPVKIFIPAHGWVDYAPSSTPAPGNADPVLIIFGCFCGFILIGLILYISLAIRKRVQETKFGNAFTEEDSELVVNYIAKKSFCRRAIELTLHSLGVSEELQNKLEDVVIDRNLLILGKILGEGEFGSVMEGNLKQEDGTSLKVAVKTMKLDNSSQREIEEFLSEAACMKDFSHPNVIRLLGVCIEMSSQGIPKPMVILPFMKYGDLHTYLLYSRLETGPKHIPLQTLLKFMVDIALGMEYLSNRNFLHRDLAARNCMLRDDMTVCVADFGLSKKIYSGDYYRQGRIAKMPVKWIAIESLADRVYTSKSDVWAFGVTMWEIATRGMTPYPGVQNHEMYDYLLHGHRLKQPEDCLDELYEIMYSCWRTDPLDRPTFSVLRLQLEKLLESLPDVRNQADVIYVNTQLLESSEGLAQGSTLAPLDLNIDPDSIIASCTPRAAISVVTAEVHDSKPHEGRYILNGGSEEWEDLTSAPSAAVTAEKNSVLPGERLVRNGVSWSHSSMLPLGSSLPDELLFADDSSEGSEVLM
As to the kind of experiment: MERTK kinase inhibition assay (Z-Lyte kinase assay kit). Type of data set: biochemical. Here is the method: All the synthesized molecules were assessed for their kinase inhibitory activity against MERTK using a kinase inhibition assay.
[…] (z‐Lyte kinase assay kit‐tyr4 peptide) was utilized to determine MERTK inhibitory activity as per the protocol supplied by the supplier along with the kit. Briefly, the mixture of MERTK (cMER) / Tyr 02 (2X) was made using HEPES buffer (50 mM, pH 7.5) comprising polyoxyethylene lauryl ether solution (0.01%), MgCl2 (10 mM), MnCl2 (4 mM), EGTA (1 mM), and DTT (2 mM). The kinase solution of 10 μL was used as the final reaction solution. In the next step, the target molecules in varying concentrations were incubated with kinase solution for 1 h. Development reagent A (5 μL) of 1:128 dilution was added after the incubation period. The fluorescence was measured at Ex/Em 400, 445, and 520 nm using a microplate reader for the determination of final percentage inhibition. The percent phosphorylation was determined via the use of the emission ratio calculated from the division of Coumarin Emission (at 445 nm) to fluorescein emission (at 520 nm). %phosphorylation=1−Emission ratio×F100%−C100%/C0%−C100%+Emission ratioF100%−F0%

The mark [7] stands for this setting: Homo sapiens, MCF7, MCF-7 cells.

`CN1CCC(c2ccc(Nc3ncnn4cc(-c5cc(F)c(F)c(F)c5)cc34)cc2F)CC1` [1K1, N‐(3‐Fluoro‐4‐(1‐Methylpiperidin‐4‐yl)phenyl)‐6‐(3,4,5‐trifluorophenyl)pyrrolo[2,1‐f][1,2,4]Triazin‐4‐Amine]: the concentration for half-maximal inhibition (IC50) turned out to be 8.63 ± 0.021 µM in data set [1] (Homo sapiens), 1.28 ± 0.014 µM in data set [2] (setting [7]) and 4.02 ± 0.015 µM in data set [3] (Homo sapiens). Besides, the % parent remaining was 71.7% in data set [4] and 70% in data set [5]. Also, the half-life at 1 μM in data set [4] was determined as 1.04 h; in data set [5], 0.972 h. The microsomal CLint at 1 μM in data set [4] was determined as 22 µL/min/mg; in data set [5], 24 µL/min/mg.

With `CCOc1c(Cl)cc(-c2cc3c(Nc4ccc(C5CCN(C)CC5)c(F)c4)ncnn3c2)cc1OC` [1K2, 6‐(3‐Chloro‐4‐Ethoxy‐5‐Methoxyphenyl)‐N‐(3‐Fluoro‐4‐(1‐Methylpiperidin‐4‐yl)phenyl)pyrrolo[2,1‐f][1,2,4]Triazin‐4‐Amine], the concentration for half-maximal inhibition (IC50) came to 1.18 ± 0.019 µM in data set [1] (Homo sapiens), 0.44 ± 0.015 µM in data set [2] (setting [7]) and 1.7 ± 0.011 µM in data set [3] (Homo sapiens). In addition, the % parent remaining in data set [4] came to 82.8%; in data set [5] it was 83.4%. The half-life at 1 μM in data set [4] was determined as 1.83 h; in data set [5], 1.9 h. Also, the microsomal CLint at 1 μM in data set [4] worked out at 13 µL/min/mg; in data set [5], 12 µL/min/mg.

For `CN1CCC(c2ccc(Nc3ncnn4cc(-c5ccc(C(C)(C)C)cc5)cc34)cc2F)CC1` [1K3, 6‐(4‐(Tert‐butyl)phenyl)‐N‐(3‐Fluoro‐4‐(1‐Methylpiperidin‐4‐yl)phenyl)pyrrolo[2,1‐f][1,2,4]Triazin‐4‐Amine], the IC50 worked out at 1.44 ± 0.017 µM in data set [1] (Homo sapiens), 1.42 ± 0.021 µM in data set [2] (setting [7]) and 4.06 ± 0.019 µM in data set [3] (Homo sapiens). The % parent remaining in data set [4] is 65.7%; in data set [5], 57%. For the same compound, the results for the half-life at 1 μM in data set [4] and in data set [5] were 0.615 h and 0.823 h, respectively. The microsomal CLint at 1 μM in data set [4] was determined as 28 µL/min/mg; in data set [5], 38 µL/min/mg.

With `COc1cc(-c2cc3c(Nc4ccc(C5CCN(C)CC5)c(F)c4)ncnn3c2)cc(Cl)c1F` [1K4, 6‐(3‐Chloro‐4‐Fluoro‐5‐Methoxyphenyl)‐N‐(3‐Fluoro‐4‐(1‐Methylpiperidin‐4‐yl)phenyl)pyrrolo[2,1‐f][1,2,4]Triazin‐4‐Amine], the IC50 was determined as 0.89 ± 0.011 µM in data set [1] (Homo sapiens), 1.14 ± 0.011 µM in data set [2] (setting [7]) and 1.47 ± 0.014 µM in data set [3] (Homo sapiens). In addition, the figures for the % parent remaining in data set [4] and in data set [5] were 75.8% and 91.7%, respectively. The half-life at 1 μM in data set [4] was 1.25 h; in data set [5] it was 3.97 h. The microsomal CLint at 1 μM in data set [4] was 18 µL/min/mg; in data set [5], 6 µL/min/mg.

Consider `CCOc1ccc(-c2cc3c(Nc4ccc(C5CCN(C)CC5)c(F)c4)ncnn3c2)cc1OC` [1K5, 6‐(4‐Ethoxy‐3‐Methoxyphenyl)‐N‐(3‐Fluoro‐4‐(1‐Methylpiperidin‐4‐yl)phenyl)pyrrolo[2,1‐f][1,2,4]Triazin‐4‐Amine], for which the values for the IC50 in data set [1] (Homo sapiens), in data set [2] (setting [7]) and in data set [3] (Homo sapiens) were 0.36 ± 0.019 µM, 0.42 ± 0.017 µM and 0.8 ± 0.011 µM, respectively. The % parent remaining in data set [4] turned out to be 94.9%; in data set [5], 79.7%. Moreover, the half-life at 1 μM in data set [4] is 6.61 h; in data set [5] it was 1.54 h. The microsomal CLint at 1 μM in data set [4] came to 3 µL/min/mg; in data set [5] it was 15 µL/min/mg. In addition, the “inhibition of MERTK” value in data set [6] (1 and 10 μM test concentrations) is on record as “approx. 42%”. The “MERTK inhibition compared with positive control staurosporine” value in data set [6] (listed as IK5) is “comparable inhibition to positive control staurosporine; also recorded: comparable inhibitory potential to the positive control drug staurosporine”.

Consider `N.N.[Cl][Pt][Cl]` [Cisplatin, cisplatin, reference compound], for which the IC50 in data set [1] worked out at 5.86 ± 0.009 µM; in data set [2] (MCF-7 cells) it was 4.93 ± 0.13 µM; in data set [3], 5.42 ± 0.09 µM.

(Values after paper PMC11618975, “Design and Development of Novel Hybrids Based on Pyrrolo[2,1‐f][1,2,4]Triazine and 1‐(Methylpiperidin‐4‐yl) Aniline–Based Analogs: Exploring the Utility as Anticancer Agents via MERTK Inhibition” (Chemical Biology & Drug Design, 2024).)
